Active and inactive are the calls of the source. No cut-off for these calls is given here.
What was measured:
[1] = Thiol reactivity of compound at pH 7.4 buffer at 100 uM and measured for 4 hrs every 5 mins in presence of DTNB and TCEP by microplate reader analysis; assay type: physicochemical; settings: pH 7.4, 4 h
Escherichia coli = test: Antibacterial activity against Escherichia coli ATCC 25922 assessed as bacterial growth inhibition at <=128 ug/ml incubated for 24 hrs by broth dilution method; assay type: functional, organism-based; settings: dose <= 128.0 µg/ml
Staphylococcus aureus = test: Antibacterial activity against Staphylococcus aureus ATCC 29213 assessed as bacterial growth inhibition at <= 128 ug/ml incubated for 24 hrs by broth dilution method; assay type: functional, organism-based; settings: dose <= 128.0 µg/ml
[2] = target: UDP-N-acetylglucosamine 1-carboxyvinyltransferase (Escherichia coli K-12) (UniProt P0A749); test: (§1) Inhibition of recombinant Escherichia coli MurA expressed in Escherichia coli NiCo21 assessed as residual activity using UNAG and PEP as substrate at 500 uM preincubated for 30 mins in presence of UNAG followed by PEP substrate addition and measured after 15 mins by malachite green based colorimetric assay; settings: time 45.0 min
UDP-N-acetylglucosamine 1-carboxyvinyltransferase (Escherichia coli K-12), sequence (P0A749 whole entry): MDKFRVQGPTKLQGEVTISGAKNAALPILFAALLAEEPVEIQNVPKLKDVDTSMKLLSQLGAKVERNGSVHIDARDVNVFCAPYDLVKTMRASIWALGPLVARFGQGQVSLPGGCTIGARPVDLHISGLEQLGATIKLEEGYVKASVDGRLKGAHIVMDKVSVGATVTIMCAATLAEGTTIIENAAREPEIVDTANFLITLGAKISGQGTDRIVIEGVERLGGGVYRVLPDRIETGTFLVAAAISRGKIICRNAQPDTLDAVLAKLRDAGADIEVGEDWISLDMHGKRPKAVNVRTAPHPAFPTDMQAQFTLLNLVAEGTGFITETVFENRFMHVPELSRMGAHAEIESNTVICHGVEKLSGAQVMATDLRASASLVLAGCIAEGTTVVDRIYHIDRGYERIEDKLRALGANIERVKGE

[3] = target: UDP-N-acetylglucosamine 1-carboxyvinyltransferase (Escherichia coli K-12, UniProt P0A749); test: Inhibition of recombinant Escherichia coli MurA expressed in Escherichia coli NiCo21 using UNAG and PEP as substrate preincubated for 30 mins in presence of UNAG followed by PEP substrate addition and measured after 15 mins by malachite green based colorimetric assay
UDP-N-acetylglucosamine 1-carboxyvinyltransferase, sequence (P0A749 whole entry): as above

[4] = Thiol reactivity of compound at pH 7.4 buffer assessed as fold decrease by measuring second order rate constant at 100 uM and measured for 4 hrs every 5 mins in presence of DTNB and TCEP by microplate reader analysis relative to Iodoacetamide; assay type: physicochemical; settings: pH 7.4, 4 h
[5] = target: UDP-N-acetylglucosamine 1-carboxyvinyltransferase (Escherichia coli K-12) (UniProt P0A749); test: Irreversible inhibition of recombinant Escherichia coli MurA expressed in Escherichia coli NiCo21 using UNAG and PEP as substrate assessed as second-order rate constant for enzyme inactivation, ratio of Kinact/Ki preincubated for 30 mins in presence of UNAG followed by 100 fold dilution and PEP substrate addition and measured after 15 mins by malachite green based colorimetric assay; settings: time 45.0 min
[6] = target: UDP-N-acetylglucosamine 1-carboxyvinyltransferase (Escherichia coli K-12) (UniProt P0A749); test: as §1, with “Irreversible inhibition” for “Inhibition”, “1 mM” for “500 uM”; settings: time 45.0 min

| Structure (SMILES) | Drug metabolism [1] | Activity (Escherichia coli) | Activity (Staphylococcus aureus) | Activity [2] | IC50 [3] | fold change (FC) [4] | Ratio [5] | Activity [6] |
| --- | --- | --- | --- | --- | --- | --- | --- | --- |
| O=C(CCl)N1CCC(c2ccccc2)CC1 | Metabolite_Detected | inactive | inactive | 71% | – | – | – | – |
| O=C(CCl)N1CCN(c2ccccc2)CC1 | – | inactive | inactive | 90% | – | – | – | – |
| COc1ccc2nc(SC3CCN(C(=O)CCl)CC3)[nH]c2n1 | Metabolite_Detected | inactive | inactive | – | 172 µM | – | – | – |
| O=C(CCl)N1CCOCC1 | Metabolite_Detected | inactive | inactive | 87% | – | – | – | – |
| O=C(CCl)NC1CCC2CCCCC2C1 (stereo not drawn) | Metabolite_Notdetected | inactive | inactive | 79% | – | – | – | – |
| COc1ccc(N2CCN(C(=O)CCl)CC2)cc1 | Metabolite_Detected | inactive | inactive | 77% | – | – | – | – |
| O=C(CCl)N1CCCc2ccccc21 | Metabolite_Detected | inactive | inactive | 73% | – | – | – | – |
| O=C(CCl)NC12CC3CC(CC(C3)C1)C2 | Metabolite_Notdetected | inactive | inactive | 77% | – | – | – | – |
| CCOC(=O)C1CCCN(C(=O)CCl)C1 (stereo not drawn) | Metabolite_Detected | inactive | inactive | 100% | – | – | – | – |
| O=C(CCl)N1CCCCC1 | Metabolite_Detected | inactive | inactive | 79% | – | – | – | – |
| O=C(CCl)NC1CCCC(OP(=O)(Oc2ccccc2)Oc2ccccc2)C1 (stereo not drawn) | Metabolite_Detected | inactive | inactive | 89% | – | – | – | – |
| NC1CCN(C(=O)CCl)CC1 | Metabolite_Detected | inactive | inactive | 82% | – | – | – | – |
| CC(C)(C)OC(=O)NC1CCN(C(=O)CCl)CC1 | Metabolite_Detected | inactive | inactive | 61% | – | – | – | – |
| N#Cc1ccc(NC(=O)CCl)cc1 | Metabolite_Detected | inactive | inactive | 89% | – | – | – | – |
| CCCCOc1ccc(NC(=O)CCl)cc1 | Metabolite_Detected | inactive | inactive | 100% | – | – | – | – |
| O=C(CCl)N1CCc2ccccc2C1 | Metabolite_Detected | inactive | inactive | 70% | – | – | – | – |
| O=C(CCl)Nc1nccs1 | Metabolite_Detected | inactive | inactive | 55% | – | 4 | – | – |
| O=C(CCl)Nc1ccc2ccccc2c1 | Metabolite_Detected | inactive | inactive | 83% | – | – | – | – |
| O=C(CCl)NC1CCCCC1 | Metabolite_Notdetected | inactive | inactive | 74% | – | – | – | – |
| O=C(CCl)N1CCC(Sc2nnc(-c3ccccc3)o2)CC1 | Metabolite_Detected | inactive | inactive | – | 162 µM | – | – | – |
| O=C(CCl)N1CCN(CC(=O)N2CCCCC2)CC1 | Metabolite_Detected | inactive | inactive | 81% | – | – | – | – |
| COc1cc(NC(=O)CCl)cc(OC)c1OC | Metabolite_Detected | inactive | inactive | 92% | – | – | – | – |
| O=C(CCl)N1CCN(Cc2ccc3c(c2)OCO3)CC1 | Metabolite_Detected | inactive | inactive | 99% | – | – | – | – |

| Structure (SMILES) | Drug metabolism [1] | Activity (Escherichia coli) | Activity (Staphylococcus aureus) | Activity [2] | IC50 [3] | fold change (FC) [4] | Ratio [5] | Activity [6] |
| --- | --- | --- | --- | --- | --- | --- | --- | --- |
| O=C(CCl)N1CCC(N2CCC(Br)C2=O)C1 (stereo not drawn) | Metabolite_Detected | inactive | inactive | – | 263 µM | 2 | 2.99 10^-4/µM/min | – |
| O=C(CCl)Nc1ccc(-c2nnn[nH]2)cc1 | Metabolite_Detected | inactive | inactive | 100% | – | – | – | – |
| O=C(CCl)Nc1ccc(C2CCCCC2)cc1 | Metabolite_Detected | inactive | inactive | 54% | – | 167 | – | – |
| O=C(CCl)Nc1ccc(C(F)(F)F)cc1 | Metabolite_Detected | inactive | inactive | 77% | – | – | – | – |
| CC1CCCN(C(=O)CCl)C1 (stereo not drawn) | Metabolite_Detected | inactive | inactive | 80% | – | – | – | – |
| CC(=O)NC1CCCC2CCCCC21 (stereo not drawn) | – | – | – | – | – | – | – | 96.1% |
| Cc1ccc(S(=O)(=O)NC(=O)CC2CCN(C(=O)CCl)CC2)cc1 | Metabolite_Detected | inactive | inactive | – | 137 µM | – | 2.79 10^-4/µM/min | – |
| O=C(CCl)Nc1cccc2ccccc12 | Metabolite_Detected | inactive | inactive | 81% | – | – | – | – |
| O=C(CCl)N1CCC(Sc2nccs2)CC1 | Metabolite_Detected | inactive | inactive | – | 195 µM | – | 7.13 10^-3/µM/min | – |
| O=C(CCl)N1CCCC(OP(=O)(Oc2ccccc2)Oc2ccccc2)C1 (stereo not drawn) | Metabolite_Detected | inactive | inactive | – | 543 µM | – | – | – |
| O=C(O)C1CCCN(C(=O)CCl)C1 (stereo not drawn) | Metabolite_Detected | inactive | inactive | 75% | – | – | – | – |
| Cc1cc(NC(=O)CCl)on1 | Metabolite_Detected | inactive | inactive | 71% | – | – | – | – |
| CCOC(=O)N1CCN(C(=O)CCl)CC1 | Metabolite_Detected | inactive | inactive | 95% | – | – | – | – |
| O=C(O)C1CCN(C(=O)CCl)CC1 | Metabolite_Detected | inactive | inactive | 95% | – | – | – | – |
| CCOC(=O)C1CCN(C(=O)CCl)CC1 | Metabolite_Detected | inactive | inactive | 100% | – | – | – | – |
| O=C(CCl)Nc1ccncc1 | Metabolite_Detected | inactive | inactive | 77% | – | – | – | – |
| COC(=O)c1ccc(NC(=O)CCl)o1 | Metabolite_Detected | inactive | inactive | 75% | – | – | – | – |
| O=C(CCl)N1CCC(COP(=O)(O)O)C1 (stereo not drawn) | Metabolite_Detected | inactive | inactive | 47% | – | – | – | – |
| O=C(CCl)N1CCC(COP(=O)(Oc2ccccc2)Oc2ccccc2)C1 (stereo not drawn) | Metabolite_Detected | inactive | inactive | – | 311 µM | – | – | – |
| CC(C)CNC(=O)CCl | Metabolite_Notdetected | inactive | inactive | 90% | – | – | – | – |
| O=C(CCl)Nc1ccc(-c2ncco2)cc1 | Metabolite_Detected | inactive | inactive | 71% | – | – | – | – |
| CS(=O)(=O)NC1CCN(C(=O)CCl)CC1 | Metabolite_Detected | inactive | inactive | – | 240 µM | – | 4.16 10^-4/µM/min | – |
| O=C(CCl)Nc1ccc2nsnc2c1 | Metabolite_Detected | inactive | inactive | – | 287 µM | – | 4.84 10^-4/µM/min | – |
